# Assay results: ChEMBL document CHEMBL1201862, “PubChem BioAssay data set” (2004)
#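 Test compounds were applied to cells in 96-well plates for 48 hours at 5 doses. GI50 is the concentration that inhibits growth by half.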 Calls of active or inactive are those of the source. Cut-off read from the data, not from the text of the source: active = GI50 up to about 1.1 µM and inactive = higher.
# What was measured:
# Experiment in all cases: NCI anticancer screen, dose series, 48 h
# SW-620 = test system: SW-620
# DMS-273 = test system: DMS-273
# HL-60 = test system: HL-60
# K562 = test system: K562
# Malme-3M = test system: Malme-3M
# CCRF-CEM = test system: CCRF-CEM
# EKVX = test system: EKVX
# DLD-1 = test system: DLD-1
# HT-29 = test system: HT-29
# SF-268 = test system: SF-268
# M14 = test system: M14
# M19-MEL = test system: M19-MEL
# OVCAR-4 = test system: OVCAR-4
# HOP-18 = test system: HOP-18
# NCI-H226 = test system: NCI-H226
# 786-0 = test system: 786-0
# DMS-114 = test system: DMS-114
# LOX IMVI = test system: LOX IMVI
# IGROV-1 = test system: IGROV-1
# HCC 2998 = test system: HCC 2998
# SK-MEL-28 = test system: SK-MEL-28
# SF-295 = test system: SF-295
# OVCAR-8 = test system: OVCAR-8
# A498 = test system: A498
# SK-MEL-5 = test system: SK-MEL-5
# OVCAR-3 = test system: OVCAR-3
# RXF 631 = test system: RXF 631
# UACC-257 = test system: UACC-257
# NCI-H522 = test system: NCI-H522
# SR = test system: SR
# KM12 = test system: KM12
# LXFL 529 = test system: LXFL 529
# SK-MEL-2 = test system: SK-MEL-2
# RPMI-8226 = test system: RPMI-8226
# TK-10 = test system: TK-10
# UACC-62 = test system: UACC-62
# SF-539 = test system: SF-539
# MOLT-4 = test system: MOLT-4
# NCI-H460 = test system: NCI-H460
# SNB-19 = test system: SNB-19
# U-251 = test system: U-251
# CAKI-1 = test system: CAKI-1
# A549 = test system: A549
# KM-20L2 = test system: KM-20L2
# HCT-116 = test system: HCT-116
# RXF 393 = test system: RXF 393
# SNB-75 = test system: SNB-75
# HCT-15 = test system: HCT-15
# HOP-92 = test system: HOP-92
# COLO 205 = test system: COLO 205
# UO-31 = test system: UO-31
# ACHN = test system: ACHN
# OVCAR-5 = test system: OVCAR-5
# NCI-H23 = test system: NCI-H23
# SN12C = test system: SN12C
# XF498 = test system: XF498
# SNB-78 = test system: SNB-78
# HOP-62 = test system: HOP-62
# SK-OV-3 = test system: SK-OV-3
compound,measurement,setting,value
COc1cc2c(cc1OC)C1[C@@H](c3ccccc3)OCN1CC2 (some centres undefined),GI50,SW-620,56.8 µM (inactive)
same,GI50,DMS-273,> 100 µM (inactive)
same,GI50,HL-60,54.5 µM (inactive)
same,GI50,K562,> 63.1 µM (inactive)
same,GI50,Malme-3M,> 100 µM (inactive)
same,GI50,CCRF-CEM,> 77.6 µM (inactive)
same,GI50,EKVX,> 100 µM (inactive)
same,GI50,DLD-1,> 86.9 µM (inactive)
same,GI50,HT-29,> 100 µM (inactive)
same,GI50,SF-268,> 100 µM (inactive)
same,GI50,M14,> 100 µM (inactive)
same,GI50,M19-MEL,> 100 µM (inactive)
same,GI50,OVCAR-4,> 100 µM (inactive)
same,GI50,HOP-18,> 100 µM (inactive)
same,GI50,NCI-H226,> 100 µM (inactive)
same,GI50,786-0,> 100 µM (inactive)
same,GI50,DMS-114,88.1 µM (inactive)
same,GI50,LOX IMVI,> 96.2 µM (inactive)
same,GI50,IGROV-1,> 100 µM (inactive)
same,GI50,HCC 2998,> 100 µM (inactive)
same,GI50,SK-MEL-28,> 100 µM (inactive)
same,GI50,SF-295,> 100 µM (inactive)
same,GI50,OVCAR-8,> 100 µM (inactive)
same,GI50,A498,> 100 µM (inactive)
same,GI50,SK-MEL-5,> 96.4 µM (inactive)
same,GI50,OVCAR-3,> 100 µM (inactive)
same,GI50,RXF 631,> 100 µM (inactive)
same,GI50,UACC-257,> 100 µM (inactive)
same,GI50,NCI-H522,> 100 µM (inactive)
same,GI50,SR,> 88.7 µM (inactive)
same,GI50,KM12,> 100 µM (inactive)
same,GI50,LXFL 529,> 100 µM (inactive)
same,GI50,SK-MEL-2,> 100 µM (inactive)
same,GI50,RPMI-8226,44.4 µM (inactive)
same,GI50,TK-10,> 100 µM (inactive)
same,GI50,UACC-62,> 100 µM (inactive)
same,GI50,SF-539,> 100 µM (inactive)
same,GI50,MOLT-4,> 100 µM (inactive)
same,GI50,NCI-H460,> 100 µM (inactive)
same,GI50,SNB-19,> 100 µM (inactive)
same,GI50,U-251,> 100 µM (inactive)
same,GI50,CAKI-1,> 100 µM (inactive)
same,GI50,A549,> 100 µM (inactive)
same,GI50,KM-20L2,> 100 µM (inactive)
same,GI50,HCT-116,> 82.2 µM (inactive)
same,GI50,RXF 393,> 100 µM (inactive)
same,GI50,SNB-75,60.8 µM (inactive)
same,GI50,HCT-15,> 90.6 µM
same,GI50,HOP-92,83.4 µM (inactive)
same,GI50,COLO 205,91.2 µM (inactive)
same,GI50,UO-31,> 100 µM (inactive)
same,GI50,ACHN,> 100 µM (inactive)
same,GI50,OVCAR-5,> 100 µM (inactive)
same,GI50,NCI-H23,> 100 µM (inactive)
same,GI50,SN12C,> 100 µM (inactive)
same,GI50,XF498,> 100 µM (inactive)
same,GI50,SNB-78,> 73.1 µM (inactive)
same,GI50,HOP-62,> 100 µM (inactive)
same,GI50,SK-OV-3,> 46 µM (inactive)
